Laboratory results published in US12569453B2, “Use of tapinarof for the treatment of atopic dermatitis” (Dermavant Sciences GmbH, priority 2018, dated 2026).
Marks after values point to notes of the source that are not given here.

Test system: adult subjects with psoriasis
Experiment: Phase II/2b clinical study in plaque psoriasis: efficacy and patient-reported outcomes
Type: in vivo, human
Details: for PGA response rate (primary endpoint): interim analysis; for subjects with ≥4 improvement in pruritus NRS score from baseline: baseline NRS score ≥4; for PGA response rate (PGA 0 or 1 and ≥2-grade improvement): mITT OC; for PASI50 response rate / PASI75 response rate / PASI90 response rate: Week 16; for PGA treatment success: Week 16 (4 weeks after end of treatment)
Description: This was a multicenter (United States, Canada, and Japan), randomized, double-blind (Sponsor-unblind), vehicle-controlled, 6-arm, parallel-group, dose-finding study in adult subjects with psoriasis. Certain study personnel at each site were unblinded to dose-frequency.
The study consisted of 3 periods: up to 4 weeks Screening, 12 weeks double-blind treatment, and 4 weeks post-treatment follow-up. Study visits occurred at Screening; Baseline; weeks 1, 2, 4, 8, and 12 during the treatment period; and 2 and 4 weeks after the last application of study treatment (i.e., at weeks 14 and 16). Additional visits could occur, as needed, for early withdrawals or to follow-up on any skin reactions or ongoing AEs. A subject's total duration of study participation was approximately 16 to 20 weeks.
Two concentrations of Tapinarof cream (0.5% and 1%) and a vehicle control were evaluated following application to all psoriasis lesions (except on the scalp) once (QD) or twice daily (BID) for 12 weeks. There were no planned dose adjustments during the study.
Efficacy was assessed by using a 5-point static Physician Global Assessment (PGA) (0-4 scale), the Psoriasis Area and Severity Index (PASI), % BSA involvement, target lesion assessments (erythema, scaling, and plaque thickness), and subject-reported itch/pruritus severity using a numeric rating scale (NRS) (from the Psoriasis Symptom Diary [PSD]). Additional subject-reported outcomes included the daily PSD (which also contained severity and bother items for 3 additional symptoms). Investigator global impression of change item (assessing change in severity of psoriasis symptoms) and 2 subject global impressions of change items (assessing change in severity of psoriasis symptoms and change in severity of itch/pruritus) were also assessed.
Physician Global Assessment: The PGA is a clinical tool for assessing the current state/severity of a subject's psoriasis. It is a static 5-point morphological assessment of overall disease severity, as determined by the investigator, using the clinical characteristics of erythema, plaque thickness, and scaling as guidelines. At each specified time point, the PGA is made without reference to previous scores. Variations of the PGA are frequently used in clinical studies because it is a simple assessment that is more similar to the assessments actually used in clinical practice. Scoring system ranges from 0 (=Clear) to 4 (=Severe).
Psoriasis Area and Severity Index: The PASI scoring system is a widely-used standard clinical tool for assessing the severity of psoriasis that takes into account the overall severity of erythema (redness), thickness (induration), and scale, as well as the extent of BSA affected with psoriasis. The 3 clinical signs are each graded on a 5 point scale (0 to 4) and the % BSA affected is scored on a 7-point scale (0 to 6) for each of the 4 specified body regions (head, upper extremities, trunk, and lower extremities). The individual scores are multiplied by a weighted factor for each body region; the sum of these scores gives the overall PASI score. Higher scores indicate more severe disease. PASI is a static assessment made without reference to previous scores.
Body Surface Area: The extent of BSA affected by psoriasis is a general indicator of disease severity and was measured throughout the study. The extent of BSA to which study treatment was applied was also recorded. For the purpose of approximate clinical estimation, the total palmar surface of the palm plus 5 digits was assumed to be approximately equivalent to 1% BSA.
Target Lesion Grading: A single target lesion was selected at Baseline to assess efficacy in treating a discrete area rather than an overall average of all areas. For that lesion, the severity of erythema, scaling, and plaque thickness was assessed by the investigator on a 5-point scale ranging from “0=none” to “4=severe”. […]

CC(C)c1c(O)cc(/C=C/c2ccccc2)cc1O [Tapinarof, 3,5-Dihydroxy-4-isopropyl-trans-stilbene]
Target lesion Erythema, percent change from Baseline (Mean) (1% BID, Early WD): −46.67% | Target lesion Plaque thickness, percent change from Baseline (Mean) (1% BID, Early WD): −46.67% | Target lesion Scaling, percent change from Baseline (Mean) (1% BID, Early WD): −52.50% | PGA response at Week 12 (1% BID, Fitzpatrick skin type I/II): 60% | PGA response at Week 12 (1% BID, Fitzpatrick skin type III/IV): 54% | PGA response at Week 12 (1% BID, Fitzpatrick skin type V/VI): 100% | Target lesion Erythema, percent change from Baseline (Mean) (1% BID, Follow-up Week 14): −65.42% | Target lesion Plaque thickness, percent change from Baseline (Mean) (1% BID, Follow-up Week 14): −67.50% | Target lesion Scaling, percent change from Baseline (Mean) (1% BID, Follow-up Week 14): −67.50% | Target lesion Erythema, percent change from Baseline (Mean) (1% BID, Follow-up/Week 16): −78.33% | Target lesion Plaque thickness, percent change from Baseline (Mean) (1% BID, Follow-up/Week 16): −76.67% | Target lesion Scaling, percent change from Baseline (Mean) (1% BID, Follow-up/Week 16): −77.50% | Target lesion Erythema, percent change from Baseline (Mean) (1% BID, Week 1): −12.50% | Target lesion Plaque thickness, percent change from Baseline (Mean) (1% BID, Week 1): −18.75% | Target lesion Scaling, percent change from Baseline (Mean) (1% BID, Week 1): −25.00% | Target lesion Erythema, percent change from Baseline (Mean) (1% BID, Week 2): −25.52% | Target lesion Plaque thickness, percent change from Baseline (Mean) (1% BID, Week 2): −33.33% | Target lesion Scaling, percent change from Baseline (Mean) (1% BID, Week 2): −32.55% | Target lesion Erythema, percent change from Baseline (Mean) (1% BID, Week 4): −44.94% | Target lesion Plaque thickness, percent change from Baseline (Mean) (1% BID, Week 4): −48.51% | Target lesion Scaling, percent change from Baseline (Mean) (1% BID, Week 4): −55.65% | Target lesion Erythema, percent change from Baseline (Mean) (1% BID, Week 8): −62.50% | Target lesion Plaque thickness, percent change from Baseline (Mean) (1% BID, Week 8): −62.82% | Target lesion Scaling, percent change from Baseline (Mean) (1% BID, Week 8): −70.51% | PGA response rate (primary endpoint) (1% BID, Week 8): 42% | Mean change in nine items of the PSD from baseline (1% BID, Week 12): −4.5^‡ | Mean change in total target lesion grading scores from baseline (1% BID, Week 12): −6.9* | Target lesion Erythema, percent change from Baseline (Mean) (1% BID, Week 12): −77.65% | Target lesion Plaque thickness, percent change from Baseline (Mean) (1% BID, Week 12): −81.82% | Target lesion Scaling, percent change from Baseline (Mean) (1% BID, Week 12): −78.79% | absolute mean change in percent BSA affected from baseline (1% BID, Week 12): 4.9 | decrease in total target lesion grading scores (mean change) (1% BID, Week 12): 6.9 | subjects with ≥4 improvement in pruritus NRS score from baseline (1% BID, Week 12): 55% | PGA response rate (PGA 0 or 1 and ≥2-grade improvement) (1% BID, Week 12): 65% | PASI50 response rate (1% BID): 83% | PASI75 response rate (1% BID): 63% | PASI90 response rate (1% BID): 38% | PGA treatment success (1% BID): 58% | subjects with severity of pruritus symptoms rated very/moderately improved (1% BID, baseline to Week 12): 70% | PGA response at Week 12 (1% BID, psoriasis duration 5 years to <10 years): 67% | PGA response at Week 12 (1% BID, psoriasis duration 6 months to <5 years): 50% | PGA response at Week 12 (1% BID, psoriasis duration ≥10 years): 73% | PGA response at Week 12 (1% BID, ≥10% BSA affected at baseline): 64% | PASI75 responders who maintained response from Week 12 to Week 16 (1% QD): 93% | PGA responders who maintained response from Week 12 to Week 16 (1% QD): 86% | difference in PGA response rate, active minus vehicle (1% QD-vehicle QD, Week 12): 51.0% | PGA response at Week 12 (1% QD, 1 to <10% BSA affected at baseline): 60% | Target lesion Erythema, percent change from Baseline (Mean) (1% QD, Early WD): −47.62% | Target lesion Plaque thickness, percent change from Baseline (Mean) (1% QD, Early WD): −60.71% | Target lesion Scaling, percent change from Baseline (Mean) (1% QD, Early WD): −57.14% | PGA response at Week 12 (1% QD, Fitzpatrick skin type I/II): 67% | PGA response at Week 12 (1% QD, Fitzpatrick skin type III/IV): 47% | PGA response at Week 12 (1% QD, Fitzpatrick skin type V/VI): 75% | Target lesion Erythema, percent change from Baseline (Mean) (1% QD, Follow-up Week 14): −70.65% | Target lesion Plaque thickness, percent change from Baseline (Mean) (1% QD, Follow-up Week 14): −70.29% | Target lesion Scaling, percent change from Baseline (Mean) (1% QD, Follow-up Week 14): −67.39% | Target lesion Erythema, percent change from Baseline (Mean) (1% QD, Follow-up/Week 16): −74.24% | Target lesion Plaque thickness, percent change from Baseline (Mean) (1% QD, Follow-up/Week 16): −65.91% | Target lesion Scaling, percent change from Baseline (Mean) (1% QD, Follow-up/Week 16): −71.59% | Target lesion Erythema, percent change from Baseline (Mean) (1% QD, Week 1): −17.14% | Target lesion Plaque thickness, percent change from Baseline (Mean) (1% QD, Week 1): −13.10% | Target lesion Scaling, percent change from Baseline (Mean) (1% QD, Week 1): −24.29% | Target lesion Erythema, percent change from Baseline (Mean) (1% QD, Week 2): −35.68% | Target lesion Plaque thickness, percent change from Baseline (Mean) (1% QD, Week 2): −30.47% | Target lesion Scaling, percent change from Baseline (Mean) (1% QD, Week 2): −32.81% | Target lesion Erythema, percent change from Baseline (Mean) (1% QD, Week 4): −51.88% | Target lesion Plaque thickness, percent change from Baseline (Mean) (1% QD, Week 4): −47.04% | Target lesion Scaling, percent change from Baseline (Mean) (1% QD, Week 4): −53.49% | Target lesion Erythema, percent change from Baseline (Mean) (1% QD, Week 8): −65.06% | Target lesion Plaque thickness, percent change from Baseline (Mean) (1% QD, Week 8): −60.90% | Target lesion Scaling, percent change from Baseline (Mean) (1% QD, Week 8): −71.79% | PGA response rate (primary endpoint) (1% QD, Week 8): 32% | Mean change in nine items of the PSD from baseline (1% QD, Week 12): −4.0^† | Mean change in total target lesion grading scores from baseline (1% QD, Week 12): −7.0* | Target lesion Erythema, percent change from Baseline (Mean) (1% QD, Week 12): −81.88% | Target lesion Plaque thickness, percent change from Baseline (Mean) (1% QD, Week 12): −70.29% | Target lesion Scaling, percent change from Baseline (Mean) (1% QD, Week 12): −83.33% | absolute mean change in percent BSA affected from baseline (1% QD, Week 12): 4.3 | decrease in total target lesion grading scores (mean change) (1% QD, Week 12): 7.0 | subjects with ≥4 improvement in pruritus NRS score from baseline (1% QD, Week 12): 73% | PGA response rate (PGA 0 or 1 and ≥2-grade improvement) (1% QD, Week 12): 56% | PASI50 response rate (1% QD): 77% | PASI75 response rate (1% QD): 58% | PASI90 response rate (1% QD): 42% | PGA treatment success (1% QD): 54% | PGA response at Week 12 (1% QD, psoriasis duration 5 years to <10 years): 50% | PGA response at Week 12 (1% QD, psoriasis duration 6 months to <5 years): 80% | PGA response at Week 12 (1% QD, psoriasis duration ≥10 years): 50% | PGA response at Week 12 (1% QD, ≥10% BSA affected at baseline): 40% | subjects rating itch symptoms very improved or moderately improved (1% and 0.5% concentration groups, Week 12): 70-77% | subjects rated by investigators as very improved or moderately improved (1% concentration groups, Week 12): > 80% | subjects rating pruritus symptoms very improved or moderately improved (1% groups, Week 12): 70-76%
